{
  "source": "patent US20170035791A1",
  "about": "“COMBINATION OF BETA-GLUCOSYLCERAMIDE AND POLYETHOXYLATED CASTOR OIL AND OTHER ADJUVANTS FOR CONTROLING BLOOD SUGAR LEVELS, IMMUNOPROTECTION AND HEPATOPROTECTION” (NATURAL SHIELD ISRAEL 2016 LTD, priority 2014, published 2017)",
  "key": {"[1]": {"tested_on": "alcohol induced liver damage mouse model", "assay": "Alcohol induced liver damage in a mouse model, ALT", "assay_type": "in vivo", "settings": "mice, alcohol 6 gr/kg by gavage with 6 microgram GC; after 16 hours; EtOH alone 414, naive 28", "method": "The inventors further characterized the ameliorating effect of the GC—the alcohol induced liver damage in a mouse model. Table 9 summarizes the relevant experimental groups, including group A of naïve mice; group B receiving alcohol 6 gr/kg-300 μl of 70% Ethanol per mouse/gavage i.e. 3500 μl EtOH Abs.+1500 μl sterile water (Ethanol is equal to 6 gr/kg for 27.5 gr mouse body weight).; Group C receiving 6 microgram of GC with alcohol. Mice were sacrificed after 16 hours and the level of liver enzymes was evaluated."}, "human subject": {"tested_on": "human subject", "assay": "Blood sugar levels in a human subject after drinking Coca Cola with GC or GC with CE add-ons", "assay_type": "in vivo", "settings": "500 ml Coca Cola with 28 mg GC add-on", "method": "A human subject healthy person was monitored for blood sugar levels for 2 hours every 15 minutes following an overnight fast and drinking of 500 ml of Coca Cola alone or Coca Cola with GC or GC with CE add-ons."}, "ConA mouse model": {"tested_on": "ConA mouse model", "assay": "Concanavalin A (ConA) induced immune-mediated hepatitis, serum ALT and AST", "assay_type": "in vivo, mice", "settings": "ConA 0.5 mg/mouse i.v., oral GC 3 mg/mouse or C:E 30 μl/mouse, 15 hours following ConA", "method": "Concanavalin A solution (ConA; purchased from MP Biomedicals, USA) consisted of 2 mg ConA in 1 ml distilled water. Mice were intravenously (IV) injected with 250 μl ConA solution (0.5 mg/mouse).\n(§1) Mice were tested for serum alanine transaminase (ALT) and aspartate aminotransferase (AST) at 24 hours after acetaminophen administration. Serum AST and ALT levels were measured by an automatic analyzer.\nThe inventors next examined the effect of the combination of GC and C:E on the immune-mediated hepatitis in Con A mouse model. Details on the relevant experimental procedures are given above in experimental procedures. In brief, mice were injected i.v. with 250 μl ConA (0.5 mg/mouse) for 15 hrs prior to oral treatments, including C:E: ethanol 1:1 solution administered (30 μl/mouse); GC with CE as 100 mg GC dissolved in 1 ml C:E or GC in ethanol as 100 mg GC dissolved in 1 ml ethanol abs. administered (3 mg/mouse); control as PBS administered (30 μl/mouse)."}, "C57B1/6 mice [2]": {"tested_on": "C57B1/6 mice", "assay": "Glucose tolerance test (GTT) in mice after Coca Cola with GC in C:E, GC in ethanol or C:E (Table 5, FIG. 5)", "assay_type": "in vivo", "settings": "Coca Cola + add-on", "method": "(§2) Male C57B1/6 mice (11-12 weeks old) were obtained from Harlan Laboratories (Jerusalem, Israel) and maintained in the Animal Core of the Hadassah-Hebrew University Medical School. All mice were administered standard laboratory chow and water ad libitum and kept in a 12-hour light/dark cycle. SSBs (Coca Cola or orange flavored soda) including additives GC and/or CE were orally administered in a volume of 300-350 μl per mouse by gavage. The animal experiments were carried out according to the guidelines of the Hebrew University-Hadassah Institutional Committee for Care and Use of Laboratory Animals and with the committee's approval.\nBeta-glucosylceramide (GC) solution consisted of 60 mg GC (purchased from Avanti Polar Lipids; Alabaster, Ala., USA) dissolved in 1 ml mixture of 30% Cremophor EL (Sigma, Rehovot, Israel) and ethanol (1:1; CE) or ethanol alone. These served basis for preparation of SSBs containing GC and/or CE, including 1800 μl Coca Cola or other SSB and 400 μl GC in CE or ethanol or CE alone.\nMice undergo a glucose tolerance test on day 60. Glucose is administered orally (1 g per kg). Serum glucose measurements is performed on tail-vein blood every fifteen minutes for three hours. Glucose levels are measured by a standard glucometer. […]"}, "[3]": {"tested_on": "APAP-mediated liver toxicity in male adult mice", "assay": "Acetaminophen (APAP) mediated liver toxicity, serum ALT", "assay_type": "in vivo", "settings": "APAP 4.6 mg/mouse; oral treatment 1 hour after APAP, GC 3 mg/mouse or C:E 30 μl/mouse; 24 hours after APAP; control 15612", "method": "Acetaminophen powder (APAP; was purchased from Sigma, cat. # A7085), was dissolved in a mixture of 30% Cremophor EL (Sigma, Rehovot, Israel) and ethanol (1:1) in DDW (Di distilled water).\nas §1\nAPAP-mediated liver toxicity was induced in male adult mice fasted overnight and 2 hours after APAP administration. APAP was i.v. injected at the concentration of 4.6 mg/mouse. Various treatments, GC or C:E alone, GC with C:E and controls, were administered 1 hour after APAP injection. For various oral treatments, C:E: Cremophor:ethanol 1:1 solution was administered (30 μl/mouse); GC with CE: 100 mg GC dissolved in 1 ml C:E or GC in ethanol: 100 mg GC dissolved in 1 ml Ethanol Abs. were administered (3 mg/mouse); Control:PBS administered (30 μl/mouse).\nAll mice were sacrificed 24 hours after APAP administration and serum levels of ALT were measured."}, "C57B1/6 mice [4]": {"tested_on": "C57B1/6 mice", "assay": "Blood sugar AUC in mice after oral Coca Cola with GC and/or CE add-on", "assay_type": "in vivo", "settings": "Coca Cola + add-on 350 μl/mouse by gavage, glucose at 0, 15, 30 min, Coca Cola alone 4785 ± 208", "method": "as §2, with “approval. […]” for “approval.”\nTo evaluate the ability of GC to control blood sugar levels during consumption of a high glucose beverage, the inventors examined the effect of GC alone and of GC with CE combination, on mice consuming various high sugar soft drinks. […] Glucose levels were measured at 0, 15, and 30 min after Coca Cola administration.\nTo further evaluate the effect of C:E on blood sugar levels following consumption of Coca Cola, the inventors performed the experiment in Table 2, including group A receiving orally Coca Cola +C:E (350 μl/mouse by gavage) and group B receiving Coca Cola only (300 μl/mouse by gavage). Glucose levels were measured at 0, 15, and 30 min after Coca Cola administration."}},
  "data": [
    {"substance": "Beta-glucosylceramide [GC]", "values": [
      {"measurement": "ALT levees", "setting": "[1]", "result": 73},
      {"measurement": "Glucose", "setting": "human subject; time 15 min", "result": 128, "unit": "mg %"},
      {"measurement": "Glucose", "setting": "human subject; time 30 min", "result": 135, "unit": "mg %"},
      {"measurement": "Glucose", "setting": "human subject; time 45 min", "result": 152, "unit": "mg %"},
      {"measurement": "Glucose", "setting": "human subject; time 60 min", "result": 132, "unit": "mg %"},
      {"measurement": "Glucose", "setting": "human subject; time 75 min", "result": 124, "unit": "mg %"},
      {"measurement": "Glucose", "setting": "human subject; time 90 min", "result": 124, "unit": "mg %"},
      {"measurement": "Glucose", "setting": "human subject; time 105 min", "result": 96, "unit": "mg %"},
      {"measurement": "Glucose", "setting": "human subject; time 120 min", "result": 96, "unit": "mg %"},
      {"measurement": "Glucose", "setting": "human subject; overnight fast, time 0 min", "result": 95, "unit": "mg %"},
      {"measurement": "AST (serum)", "setting": "ConA mouse model; control 8807", "result": 2231},
      {"measurement": "ALT (serum)", "setting": "ConA mouse model; control 8887", "result": 1875},
      {"measurement": "AUC at 30 minutes, effect compared to controls (FIG. 5B)", "setting": "C57B1/6 mice [2]", "result": "significant"},
      {"measurement": "ALT (serum)", "setting": "[3]", "result": 9290},
      {"measurement": "AUC 30 minutes (blood sugar levels)", "setting": "C57B1/6 mice [4]", "result": "4381.25 ± 320"}
    ]}
  ]
}
